Results from article PMC7158045 (BMC Plant Biology, 2020).
Where a name gives a salt, the structure may show the parent alone.

What was measured:
Experiment in all cases: biochemical
ZmDRIK1-R187-P492 = target: T1, ZmDRIK1-R187-P492 (Zea mays, UniProt C0P4K9); conditions: read-out: dTm B, DSF, Boltzmann fit, 0.1% DMSO
T1 construct: kinase domain, R187-P492
T1 sequence (C0P4K9 1-514): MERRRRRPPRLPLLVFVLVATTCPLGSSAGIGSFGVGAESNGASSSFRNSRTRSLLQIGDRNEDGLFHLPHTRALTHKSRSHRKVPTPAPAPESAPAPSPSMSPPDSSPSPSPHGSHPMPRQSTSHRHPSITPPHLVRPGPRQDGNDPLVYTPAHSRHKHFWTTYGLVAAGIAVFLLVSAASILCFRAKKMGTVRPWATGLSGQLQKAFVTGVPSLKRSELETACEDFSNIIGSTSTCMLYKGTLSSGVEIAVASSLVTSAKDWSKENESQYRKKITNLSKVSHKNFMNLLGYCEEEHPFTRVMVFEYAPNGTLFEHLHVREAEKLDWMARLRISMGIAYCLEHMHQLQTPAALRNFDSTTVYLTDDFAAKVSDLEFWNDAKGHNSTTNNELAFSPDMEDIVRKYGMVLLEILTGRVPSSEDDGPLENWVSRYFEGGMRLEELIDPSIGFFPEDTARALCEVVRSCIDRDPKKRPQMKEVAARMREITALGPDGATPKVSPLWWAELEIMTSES

ZmDRIK1-K217-P492 = target: T2, ZmDRIK1-K217-P492 (Zea mays, UniProt C0P4K9); conditions: read-out: dTm B, sheet ZmDRIK1-K217-P492;; DSF, Boltzmann fit, 0.1% DMSO
T2 construct: kinase domain, K217-P492
T2 sequence (C0P4K9 1-514): T1 sequence (C0P4K9 1-514)

ZmDRIK1-K217-S514 = target: T3, ZmDRIK1-K217-S514 (Zea mays, UniProt C0P4K9); conditions: read-out: dTm B, sheet ZmDRIK1-K217-S514;; DSF, Boltzmann fit, 0.1% DMSO
T3 construct: kinase domain, K217-S514
T3 sequence (C0P4K9 1-514): T1 sequence (C0P4K9 1-514)

[1] = target: T4, ZmDRIK1 (DROUGHT RESPONSIVE INACTIVE KINASE 1), kinase domain (Zea mays, UniProt C0P4K9); conditions: read-out: dTm B, sheet ZmDRIK1-R187-S514;; DSF, Boltzmann fit, 0.1% DMSO
T4 construct: gene ZEAMMB73_Zm00001d028770; ZmDRIK1-KD R187-S514 (kinase domain)
T4 sequence (C0P4K9 187-514): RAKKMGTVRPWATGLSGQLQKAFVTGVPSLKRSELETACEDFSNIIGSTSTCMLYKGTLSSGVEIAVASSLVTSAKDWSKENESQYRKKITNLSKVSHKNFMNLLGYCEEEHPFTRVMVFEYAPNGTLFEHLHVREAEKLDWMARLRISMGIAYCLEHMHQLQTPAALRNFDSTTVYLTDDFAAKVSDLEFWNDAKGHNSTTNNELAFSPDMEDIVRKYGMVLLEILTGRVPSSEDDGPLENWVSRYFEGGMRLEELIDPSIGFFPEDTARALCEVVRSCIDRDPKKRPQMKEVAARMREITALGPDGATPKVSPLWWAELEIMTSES

ΔTm at 10 µM (ZmDRIK1-R187-P492) | ΔTm at 10 µM (ZmDRIK1-K217-P492) | ΔTm at 10 µM (ZmDRIK1-K217-S514) | ΔTm at 10 µM [1] | SMILES
-0.163 °C | -0.93 °C | -0.254 °C | -1.12 °C | COc1cc(F)c(F)c(Nc2ccc(I)cc2F)c1NS(=O)(=O)C1(C[C@H](O)CO)CC1 [Refametinib (RDEA119)]
-5.88 °C | -8.99 °C | -0.13 °C | -15.3 °C | CNC(=O)c1cc(Oc2ccc(NC(=O)Nc3ccc(Cl)c(C(F)(F)F)c3)c(F)c2)ccn1 [Regorafenib (BAY 73-4506)]
-0.365 °C | -1.84 °C | -0.213 °C | -0.675 °C | CO[C@H]1C[C@@H]2CC[C@@H](C)[C@@](O)(O2)C(=O)C(=O)N2CCCC[C@H]2C(=O)O[C@H]([C@H](C)C[C@@H]2CC[C@@H](OP(C)(C)=O)[C@H](OC)C2)CC(=O)[C@H](C)/C=C(\C)[C@@H](O)[C@@H](OC)C(=O)[C@H](C)C[C@H](C)/C=C/C=C/C=C/1C [Ridaforolimus (Deforolimus)]
-0.217 °C | -0.805 °C | -0.421 °C | -0.824 °C | COc1cc(OC)c(/C=C/S(=O)(=O)Cc2ccc(OC)c(NCC(=O)O)c2)c(OC)c1 [Rigosertib (ON-01910)]
-0.197 °C | -1.24 °C | -0.33 °C | -0.819 °C | Cn1cc(C2=C(c3cn(CCCSC(=N)N)c4ccccc34)C(=O)NC2=O)c2ccccc21 [Ro 31-8220 Mesylate]
-0.181 °C | -0.827 °C | -0.272 °C | -0.688 °C | CCn1c(N)c(C(=O)NC)c(=O)c2ccc(C#C[C@@](C)(O)COC)nc21 [SAR131675]
-18.3 °C | 1.22 °C | 2.58 °C | 0.194 °C | Oc1ccc(-c2nc(-c3ccc(F)cc3)c(-c3ccncc3)[nH]2)cc1 [SB202190 (FHPI)]
-0.115 °C | -1.29 °C | -0.35 °C | -0.887 °C | Cn1cc(C2=C(c3ccc(Cl)cc3Cl)C(=O)NC2=O)c2ccccc21 [SB216763]
-0.167 °C | -0.936 °C | -0.286 °C | -0.734 °C | CN(C)CCOc1ccc(-c2nc(-c3ccncc3)c(-c3ccc4c(c3)CC/C4=N\O)[nH]2)cc1 [SB590885]
-0.27 °C | -0.576 °C | -0.336 °C | -1.1 °C | CN1CCC(CNc2ccc3ncc(-c4cccc(OC(F)(F)F)c4)n3n2)CC1 [SGI-1776 free base]
-0.0185 °C | -0.7 °C | -0.351 °C | -0.576 °C | Cn1cc(-c2ccc3nnc(Sc4ccc5ncccc5c4)n3n2)cn1 [SGX-523]
-2.86 °C | -0.22 °C | -1.52 °C | 0.0373 °C | Oc1ccc(Nc2nc(-c3ccc(Cl)cc3)cs2)cc1 [SKI II]
-0.157 °C | -0.701 °C | -0.356 °C | -1.09 °C | N#C/C(=C(/N)Sc1ccc(N)cc1)c1ccccc1C(F)(F)F [SL-327]
0.139 °C | -1.12 °C | -0.218 °C | -0.708 °C | O=C1NC(=O)/C(=C/c2cccc(C(F)(F)F)c2)S1 [SMI-4a]
-0.103 °C | -0.977 °C | -0.203 °C | -1.09 °C | CC(C)(C)c1cnc(CSc2cnc(NC(=O)C3CCNCC3)s2)o1 [SNS-032 (BMS-387032)]
0.159 °C | -0.277 °C | -1.86 °C | -23.9 °C | O=C(Nc1cccc(Cl)c1)Nc1ncc(CCNc2ncnc3ccsc23)s1 [SNS-314 Mesylate]
-0.115 °C | -1.06 °C | -0.115 °C | -0.63 °C | Oc1c2ccccc2c2c3c(cccc13)N=N2 [SP600125]
-0.288 °C | -0.463 °C | -0.605 °C | -1.31 °C | Cc1[nH]c(/C=C2\C(=O)Nc3ccc(S(=O)(=O)N(C)c4cccc(Cl)c4)cc32)c(C)c1C(=O)N1CCN(C)CC1 [SU11274]
